In PubChem BioAssay (NCI):
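Dose response: 5 concentrations. Exposure: 48 h. Format: 96-well plates. Endpoint: linear interpolation; highest concentration if not reached. The concentration for 50% growth inhibition is given as GI50. TGI marks complete inhibition of growth.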

Key:
Test in all cases: NCI anticancer screen, dose series, 48 h
[1] = test system: UO-31 renal
[2] = test system: HOP-62 NSCLC
[3] = test system: 786-0 renal
[4] = test system: CCRF-CEM leukemia
[5] = test system: KM12 colon
[6] = test system: M14 melanoma
[7] = test system: TK-10 renal
[8] = test system: SF-295 CNS
[9] = test system: A498 renal
[10] = test system: UACC-62 melanoma
[11] = test system: LOX IMVI melanoma
[12] = test system: K-562 leukemia
[13] = test system: SK-MEL-5 melanoma
[14] = test system: HCT-116 colon
[15] = test system: HT29 colon
[16] = test system: MDA-MB-435
[17] = test system: PC-3 prostate
[18] = test system: OVCAR-3 ovarian
[19] = test system: HCC-2998 colon
[20] = test system: A549 NSCLC
[21] = test system: SN12C renal
[22] = test system: BT-549 breast
[23] = test system: RXF 393 renal
[24] = test system: NCI-H226 lung
[25] = test system: HCT-15 colon
[26] = test system: RPMI-8226 leukemia
[27] = test system: MDA-MB-231 breast
[28] = test system: MOLT-4 leukemia
[29] = test system: MCF7 breast
[30] = test system: MALME-3M melanoma
[31] = test system: DU-145 prostate
[32] = test system: HS 578T breast
[33] = test system: IGROV1 ovarian
[34] = test system: NCI/ADR-RES ovarian
[35] = test system: U251 CNS
[36] = test system: SNB-19 CNS
[37] = test system: CAKI-1 renal
[38] = test system: SW-620 colon
[39] = test system: SK-MEL-28 melanoma
[40] = test system: ACHN renal
[41] = test system: UACC-257 melanoma
[42] = test system: SF-539 CNS
[43] = test system: HOP-92 NSCLC
[44] = test system: SK-MEL-2 melanoma
[45] = test system: T-47D breast
[46] = test system: OVCAR-5 ovarian
[47] = test system: NCI-H522 lung
[48] = test system: SK-OV-3 ovarian
[49] = test system: COLO 205 colon
[50] = test system: SF-268 CNS
[51] = test system: OVCAR-8 ovarian
[52] = test system: HL-60(TB) leukemia
[53] = test system: OVCAR-4 ovarian
[54] = test system: EKVX NSCLC
[55] = test system: NCI-H460 lung
[56] = test system: SNB-75 CNS
[57] = test system: NCI-H23 lung

Work on `COC1C(CO)OC(n2c3ccccc3c3c4c(c5c6ccccc6[nH]c5c32)C(=O)NC4=O)C(OC(=O)C(N)CCCCN)C1O` (centres undefined) yielded a GI50 [1] of 215 nM, a TGI [1] of 903 nM and a GI50 [2] of 144 nM. The TGI [2] was 2400 nM, the GI50 [3] was 111 nM and the TGI [3] was 3300 nM. It also gave a GI50 [4] of 38.7 nM, a TGI [4] of 2830 nM and a GI50 [5] of 52.9 nM. For the same molecule, the TGI [5] was 599 nM, the GI50 [6] was 132 nM and the TGI [6] was 3230 nM. For the same molecule, the GI50 [7] was 371 nM, the TGI [7] was 1460 nM and the GI50 [8] was 165 nM. For the same molecule, the TGI [8] was 1950 nM, the GI50 [9] was 5 nM and the TGI [9] was 230 nM. For the same molecule, the GI50 [10] was 28.1 nM, the TGI [10] was 185 nM and the GI50 [11] was 5 nM. It also gave a TGI [11] of 35.1 nM, a GI50 [12] of 30.8 nM and a TGI [12] of 8990 nM. The GI50 [13] was 42.6 nM, the TGI [13] was 125 nM and the GI50 [14] was 83.4 nM. The TGI [14] was 50000 nM, the GI50 [15] was 357 nM and the TGI [15] was 12900 nM. The GI50 [16] was 123 nM, the TGI [16] was 1430 nM and the GI50 [17] was 116 nM. The TGI [17] was 2580 nM, the GI50 [18] was 144 nM and the TGI [18] was 1160 nM. The GI50 [19] was 173 nM, the TGI [19] was 1500 nM and the GI50 [20] was 962 nM. The TGI [20] was 9040 nM, the GI50 [21] was 23.7 nM and the TGI [21] was 56.2 nM. It also gave a GI50 [22] of 165 nM, a TGI [22] of 2480 nM and a GI50 [23] of 53.7 nM. It also gave a TGI [23] of 815 nM, a GI50 [24] of 37.1 nM and a TGI [24] of 291 nM. It also gave a GI50 [25] of 1920 nM, a TGI [25] of 9530 nM and a GI50 [26] of 1330 nM. It also gave a TGI [26] of 11600 nM, a GI50 [27] of 50.4 nM and a TGI [27] of 1010 nM. It also gave a GI50 [28] of 56 nM, a TGI [28] of 13300 nM and a GI50 [29] of 79.6 nM. The TGI [29] was 5450 nM, the GI50 [30] was 24.5 nM and the TGI [30] was 157 nM. It also gave a GI50 [31] of 168 nM, a TGI [31] of 3210 nM and a GI50 [32] of 299 nM. The TGI [32] was 2260 nM, the GI50 [33] was 102 nM and the TGI [33] was 2930 nM. It also gave a GI50 [34] of 1400 nM, a TGI [34] of 21900 nM and a GI50 [35] of 12.8 nM. For the same molecule, the TGI [35] was 311 nM, the GI50 [36] was 88.9 nM and the TGI [36] was 14200 nM. The GI50 [37] was 23.2 nM, the TGI [37] was 65.5 nM and the GI50 [38] was 10.8 nM. The TGI [38] was 1670 nM, the GI50 [39] was 165 nM and the TGI [39] was 2260 nM. For the same molecule, the GI50 [40] was 22.6 nM, the TGI [40] was 169 nM and the GI50 [41] was 437 nM. The TGI [41] was 5300 nM, the GI50 [42] was 17.3 nM and the TGI [42] was 139 nM. It also gave a GI50 [43] of 35.3 nM, a TGI [43] of 735 nM and a GI50 [44] of 505 nM. The TGI [44] was 1710 nM, the GI50 [45] was 14.5 nM and the TGI [45] was 187 nM. The GI50 [46] was 386 nM, the TGI [46] was 2800 nM and the GI50 [47] was 15.7 nM. For the same molecule, the TGI [47] was 440 nM, the GI50 [48] was 225 nM and the TGI [48] was 3910 nM. It also gave a GI50 [49] of 96.3 nM, a TGI [49] of 5670 nM and a GI50 [50] of 23.2 nM. For the same molecule, the TGI [50] was 721 nM, the GI50 [51] was 119 nM and the TGI [51] was 6970 nM. The GI50 [52] was 5.92 nM, the TGI [52] was 59.7 nM and the GI50 [53] was 593 nM. The TGI [53] was 5710 nM, the GI50 [54] was 592 nM and the TGI [54] was 3150 nM. It also gave a GI50 [55] of 1060 nM, a TGI [55] of 3780 nM and a GI50 [56] of 156 nM. It also gave a TGI [56] of 3660 nM, a GI50 [57] of 200 nM and a TGI [57] of 1530 nM.
